Measurements published in patent publication US6403647B1, “Pulsed administration of compositions for the treatment of blood disorders” (priority 1996, dated 2002).

System: γ-globin expression
Assay: γ-globin mRNA by RNase protection in erythroid cell cultures of normal individuals
Format: cell-based, human
Settings: for x increase: over ChFCS
Protocol: Fetal globin production was determined in erythroid progenitor cells cultured in the presence or absence of test compositions. Erythroid cells were purified from blood obtained from a normal individual . […] Erythroid cell cultures were established with the following conditions: IMDM methylcellulose media, erythropoietin (3 U/ml), the human subjects' mononuclear cells, 30% charcoal-absorbed fetal calf serum, and the test compounds at varying micromolar concentrations.
Compounds were tested for their ability to induce expression of fetal globin expression in erythroid cell cultures established from the peripheral blood of normal individuals. Colonies were harvested and assayed for globin mRNA following 14 days of culture. Each compound was tested in duplicate cultures from 2-4 individual human subjects. Globin expression was quantitated by RNase protection assay for % gamma globin as a fraction of total non-alpha globin (% gamma/gamma+beta globin mRNA).

CCC(=O)NO [propionyl hydroxamate]
x increase (1 μM, 990709): 1.1 x
γ/γ + β (1 μM, 990709, subject 99-4): 1.39%
γ/γ + β (1 μM, 990709, subject 99-5): 2.39%
γ/γ + β mean (1 μM, 990709, subjects 99-4, 99-5): 1.89%
x increase (8 μM, 990709): 0.9 x
γ/γ + β (8 μM, 990709, subject 99-4): 1.19%
γ/γ + β (8 μM, 990709, subject 99-5): 1.73%
γ/γ + β mean (8 μM, 990709, subjects 99-4, 99-5): 1.46%
x increase (10 μM, 990709): 1.5 x
γ/γ + β (10 μM, 990709, subject 99-4): 1.86%
γ/γ + β (10 μM, 990709, subject 99-5): 3.28%
γ/γ + β mean (10 μM, 990709, subjects 99-4, 99-5): 2.57%
x increase (25 μM, 991208): 1.5 x
γ/γ + β (25 μM, 991208, subject 00-1): 12.17%
γ/γ + β (25 μM, 991208, subject 00-3): 12.38%
γ/γ + β mean (25 μM, 991208, subjects 00-1, 00-3): 12.27%
x increase (50 μM, 0601-0): 2.5 x
γ/γ + β (50 μM, 0601-0, subject 00-3): 9.57%
γ/γ + β mean (50 μM, 0601-0, subject 00-3 only): 9.57%
x increase (50 μM, 990709): 3.0 x
γ/γ + β (50 μM, 990709, subject 99-4): 3.80%
γ/γ + β (50 μM, 990709, subject 99-5): 6.40%
γ/γ + β mean (50 μM, 990709, subjects 99-4, 99-5): 5.10%
x increase (50 μM, 991208): 2.5 x
γ/γ + β (50 μM, 991208, subject 00-1): 20.79%
γ/γ + β (50 μM, 991208, subject 00-3): 21.30%
γ/γ + β mean (50 μM, 991208, subjects 00-1, 00-3): 21.05%
x increase (100 μM, 0601-0): 4.8 x
γ/γ + β (100 μM, 0601-0, subject 00-3): 16.66%
γ/γ + β mean (100 μM, 0601-0, subject 00-3 only): 16.66%
x increase (100 μM, 990709): 4.6 x
γ/γ + β (100 μM, 990709, subject 99-4): 7.78%
γ/γ + β (100 μM, 990709, subject 99-5): 8.80%
γ/γ + β mean (100 μM, 990709, subjects 99-4, 99-5): 7.72%
x increase (100 μM, 991208): 4.3 x
γ/γ + β (100 μM, 991208, subject 00-1): 32.74%
γ/γ + β (100 μM, 991208, subject 00-3): 38.33%
γ/γ + β mean (100 μM, 991208, subjects 00-1, 00-3): 35.54%
x increase (125 μM, 991208): 4.7 x
γ/γ + β (125 μM, 991208, subject 00-1): 37.83%
γ/γ + β (125 μM, 991208, subject 00-3): 39.14%
γ/γ + β mean (125 μM, 991208, subjects 00-1, 00-3): 38.49%
x increase (150 μM, 0601-0): 6.3 x
γ/γ + β (150 μM, 0601-0, subject 00-3): 24.40%
γ/γ + β mean (150 μM, 0601-0, subject 00-3 only): 24.40%
x increase (150 μM, 991208): 6.7 x
γ/γ + β (150 μM, 991208, subject 00-1): 59.60%
γ/γ + β (150 μM, 991208, subject 00-3): 51.56%
γ/γ + β mean (150 μM, 991208, subjects 00-1, 00-3): 55.58%
fetal (gamma) globin expression, fold over control cultures (5 to 150 micromolar): 1.5-6.7 fold

CCCC(=O)NO [butyryl hydroxamate]
x increase (6 μM, group 1 (99-4, 99-5)): 1.0 x
γ/γ + β (6 μM, group 1, subject 99-4): 2.29%
γ/γ + β (6 μM, group 1, subject 99-5): 3.40%
γ/γ + β mean (6 μM, group 1, subjects 99-4, 99-5): 2.85%
x increase (10 μM, group 1 (99-4, 99-5)): 1.3 x
γ/γ + β (10 μM, group 1, subject 99-4): 3.44%
γ/γ + β (10 μM, group 1, subject 99-5): 4.06%
γ/γ + β mean (10 μM, group 1, subjects 99-4, 99-5): 3.75%
x increase (20 μM, group 1 (99-4, 99-5)): 1.9 x
γ/γ + β (20 μM, group 1, subject 99-4): 4.43%
γ/γ + β (20 μM, group 1, subject 99-5): 6.06%
γ/γ + β mean (20 μM, group 1, subjects 99-4, 99-5): 6.25%
x increase (20 μM, group 2 (99-6, 99-7)): 1.0 x
γ/γ + β (20 μM, group 2, subject 99-6): 8.65%
γ/γ + β (20 μM, group 2, subject 99-7): 12.49%
γ/γ + β mean (20 μM, group 2, subjects 99-6, 99-7): 10.57%
x increase (30 μM, group 1 (99-4, 99-5)): 1.7 x
γ/γ + β (30 μM, group 1, subject 99-4): 4.12%
γ/γ + β (30 μM, group 1, subject 99-5): 5.35%
γ/γ + β mean (30 μM, group 1, subjects 99-4, 99-5): 4.74%
x increase (40 μM, group 1 (99-4, 99-5)): 2.8 x
γ/γ + β (40 μM, group 1, subject 99-5): 7.72%
γ/γ + β mean (40 μM, group 1, subject 99-5 only): 7.72%
x increase (40 μM, group 2 (99-6, 99-7)): 1.5 x
γ/γ + β (40 μM, group 2, subject 99-6): 14.81%
γ/γ + β (40 μM, group 2, subject 99-7): 17.39%
γ/γ + β mean (40 μM, group 2, subjects 99-6, 99-7): 16.10%
x increase (60 μM, group 2 (99-6, 99-7)): 4.1 x
γ/γ + β (60 μM, group 2, subject 99-6): 37.65%
γ/γ + β (60 μM, group 2, subject 99-7): 51.04%
γ/γ + β mean (60 μM, group 2, subjects 99-6, 99-7): 44.35%
x increase (80 μM, group 2 (99-6, 99-7)): 4.7 x
γ/γ + β (80 μM, group 2, subject 99-6): 44.98%
γ/γ + β (80 μM, group 2, subject 99-7): 55.39%
γ/γ + β mean (80 μM, group 2, subjects 99-6, 99-7): 50.19%
x increase (100 μM, group 2 (99-6, 99-7)): 5.3 x
γ/γ + β (100 μM, group 2, subject 99-6): 54.06%
γ/γ + β (100 μM, group 2, subject 99-7): 60.90%
γ/γ + β mean (100 μM, group 2, subjects 99-6, 99-7): 57.48%
